Test results taken from ChEMBL document CHEMBL5370537, “Aporphines: A privileged scaffold in CNS drug discovery” (Eur J Med Chem, 2023).

Tests used:
Acetylcholinesterase = Acetylcholinesterase (Electrophorus electricus, UniProt O42275); test: Inhibition of Electrophorus electricus AChE using ATCI as substrate pre-incubated for 10 mins followed by substrate addition measured after 5 mins by microplate reader analysis
Cholinesterase = Cholinesterase (Equus caballus, UniProt P81908); test: Inhibition of equine serum BuChE using BTCI as substrate pre-incubated for 10 mins followed by substrate addition measured after 5 mins by microplate reader analysis
BV-2 = test: Inhibition of NO production in LPS-induced mouse BV-2 cells incubated for 24 hrs by Griess reagent based microplate reader analysis; format: functional, cell-based; details: BV-2, 24 h
[1] = molecular target: T1, 5-hydroxytryptamine receptor 2A (Homo sapiens, UniProt P28223); test: Binding affinity to human 5-HT2A transfected in HEK293 cells assessed as antagonist dissociation constant measured after 1 hrs; format: cell-based; details: filed as antagonist
[2] = molecular target: 5-hydroxytryptamine receptor 2B (Homo sapiens, UniProt P41595); test: Binding affinity to human 5-HT2B transfected in HEK293 cells assessed as antagonist dissociation constant measured after 1 hrs; format: cell-based; details: filed as antagonist
[3] = molecular target: T2, 5-hydroxytryptamine receptor 2C (Homo sapiens) (UniProt P28335); test: Binding affinity to human 5-HT2C transfected in HEK293 cells assessed as antagonist dissociation constant measured after 1 hrs; format: cell-based; details: filed as antagonist
T2 sequence (whole entry): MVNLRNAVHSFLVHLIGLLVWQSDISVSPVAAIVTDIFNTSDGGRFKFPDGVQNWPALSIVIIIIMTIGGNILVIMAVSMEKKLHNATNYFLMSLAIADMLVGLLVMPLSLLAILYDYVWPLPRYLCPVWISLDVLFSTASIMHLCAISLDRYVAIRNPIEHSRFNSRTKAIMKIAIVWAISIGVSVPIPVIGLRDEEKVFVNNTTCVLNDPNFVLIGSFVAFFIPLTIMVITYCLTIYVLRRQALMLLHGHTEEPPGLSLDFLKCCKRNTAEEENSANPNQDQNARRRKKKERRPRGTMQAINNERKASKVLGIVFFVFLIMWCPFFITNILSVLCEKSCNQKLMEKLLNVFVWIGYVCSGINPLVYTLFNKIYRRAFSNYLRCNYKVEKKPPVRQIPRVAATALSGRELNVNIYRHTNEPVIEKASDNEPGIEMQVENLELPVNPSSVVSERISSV

[4] = molecular target: T3, Alpha-1A adrenergic receptor (Homo sapiens) (UniProt P35348); test: Binding affinity to human alpha1A adrenergic receptors transfected in HEK293 cells assessed as antagonist dissociation constant measured after 1 hrs; format: cell-based; details: filed as antagonist
T3 sequence (whole entry): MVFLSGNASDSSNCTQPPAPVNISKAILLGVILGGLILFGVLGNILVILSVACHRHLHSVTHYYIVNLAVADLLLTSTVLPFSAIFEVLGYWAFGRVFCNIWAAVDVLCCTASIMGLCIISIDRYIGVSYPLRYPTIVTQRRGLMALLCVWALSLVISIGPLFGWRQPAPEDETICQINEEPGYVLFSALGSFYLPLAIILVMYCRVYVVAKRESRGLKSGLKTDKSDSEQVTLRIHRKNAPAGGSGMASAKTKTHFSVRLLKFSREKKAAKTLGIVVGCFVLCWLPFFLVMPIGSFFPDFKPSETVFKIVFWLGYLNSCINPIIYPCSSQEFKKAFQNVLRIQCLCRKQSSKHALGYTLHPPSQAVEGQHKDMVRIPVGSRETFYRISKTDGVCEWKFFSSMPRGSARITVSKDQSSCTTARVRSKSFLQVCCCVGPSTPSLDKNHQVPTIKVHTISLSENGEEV

[5] = molecular target: T4, Alpha-1B adrenergic receptor (Homo sapiens) (UniProt P35368); test: Binding affinity to human alpha1B adrenergic receptors transfected in HEK293 cells assessed as antagonist dissociation constant measured after 1 hrs; format: cell-based; details: filed as antagonist
T4 sequence (whole entry): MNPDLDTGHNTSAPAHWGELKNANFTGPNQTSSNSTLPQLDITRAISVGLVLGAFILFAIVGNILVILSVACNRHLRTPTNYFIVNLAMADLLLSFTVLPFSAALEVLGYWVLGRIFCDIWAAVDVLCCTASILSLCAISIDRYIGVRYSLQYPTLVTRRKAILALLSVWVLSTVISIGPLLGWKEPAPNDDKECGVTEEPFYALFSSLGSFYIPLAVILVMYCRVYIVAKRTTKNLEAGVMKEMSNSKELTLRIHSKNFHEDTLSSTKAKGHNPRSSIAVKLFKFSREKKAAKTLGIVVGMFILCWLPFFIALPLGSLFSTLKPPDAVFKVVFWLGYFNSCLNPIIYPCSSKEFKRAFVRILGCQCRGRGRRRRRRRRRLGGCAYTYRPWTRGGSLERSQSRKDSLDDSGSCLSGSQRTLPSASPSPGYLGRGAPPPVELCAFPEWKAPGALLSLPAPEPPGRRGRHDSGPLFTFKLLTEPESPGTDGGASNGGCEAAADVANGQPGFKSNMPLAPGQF

[6] = molecular target: T5, Alpha-1D adrenergic receptor (Homo sapiens) (UniProt P25100); test: Binding affinity to human alpha1D adrenergic receptors transfected in HEK293 cells assessed as antagonist dissociation constant measured after 1 hrs; format: cell-based; details: filed as antagonist
T5 sequence (whole entry): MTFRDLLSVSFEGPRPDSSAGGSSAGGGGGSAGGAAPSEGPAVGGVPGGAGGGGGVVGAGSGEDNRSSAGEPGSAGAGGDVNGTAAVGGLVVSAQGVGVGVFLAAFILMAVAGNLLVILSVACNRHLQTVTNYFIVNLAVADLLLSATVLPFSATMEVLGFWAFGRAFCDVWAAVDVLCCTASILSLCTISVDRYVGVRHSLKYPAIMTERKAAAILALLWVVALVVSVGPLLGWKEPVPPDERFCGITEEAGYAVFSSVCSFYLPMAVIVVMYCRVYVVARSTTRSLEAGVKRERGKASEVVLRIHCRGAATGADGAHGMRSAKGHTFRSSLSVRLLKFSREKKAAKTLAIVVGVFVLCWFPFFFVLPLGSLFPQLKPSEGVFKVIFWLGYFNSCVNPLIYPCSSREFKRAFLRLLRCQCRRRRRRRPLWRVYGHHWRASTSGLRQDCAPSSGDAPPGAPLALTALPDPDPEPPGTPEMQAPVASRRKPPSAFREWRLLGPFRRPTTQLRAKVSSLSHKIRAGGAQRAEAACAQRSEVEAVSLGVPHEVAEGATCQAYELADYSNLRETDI

D(2) dopamine receptor = D(2) dopamine receptor (Homo sapiens, UniProt P14416); test: Antagonist activity at D2R (unknown origin); format: functional
D(1A) dopamine receptor = D(1A) dopamine receptor (Homo sapiens, UniProt P21728); test: Antagonist activity at D1R (unknown origin) transfected in HEK293 cells by FLIPR assay
[7] = molecular target: T6, 5-hydroxytryptamine receptor 2C (Homo sapiens, UniProt P28335); test: Partial agonist activity at human 5-HT2C stably transfected in HEK293T cells measured after 18 to 24 hrs by FLIPR assay; format: functional, cell-based
T6 sequence (P28335 whole entry): T2 sequence (whole entry)

[8] = molecular target: T1, 5-hydroxytryptamine receptor 2A; test: Antagonist activity at 5-HT2A (unknown origin) transfected in HEK293 cells by FLIPR assay; format: functional, cell-based
[9] = molecular target: 5-hydroxytryptamine receptor 7 (Rattus norvegicus, UniProt P32305); test: Displacement of [3H]5-HT from rat 5-HT7 assessed as inhibition constant
[10] = molecular target: T6, 5-hydroxytryptamine receptor 2C; test: Agonist activity at recombinant human 5-HT2C stably expressed in human T-REx-293 cells measured after 60 mins by FLIPR assay; format: functional, cell-based
[11] = molecular target: T2, 5-hydroxytryptamine receptor 2C (Homo sapiens); test: Agonist activity at recombinant human 5-HT2C stably expressed in human T-REx-293 cells measured after 60 mins by FLIPR assay relative to control; format: functional, cell-based; details: filed as agonist

Chain of Acetylcholinesterase (O42275 whole entry): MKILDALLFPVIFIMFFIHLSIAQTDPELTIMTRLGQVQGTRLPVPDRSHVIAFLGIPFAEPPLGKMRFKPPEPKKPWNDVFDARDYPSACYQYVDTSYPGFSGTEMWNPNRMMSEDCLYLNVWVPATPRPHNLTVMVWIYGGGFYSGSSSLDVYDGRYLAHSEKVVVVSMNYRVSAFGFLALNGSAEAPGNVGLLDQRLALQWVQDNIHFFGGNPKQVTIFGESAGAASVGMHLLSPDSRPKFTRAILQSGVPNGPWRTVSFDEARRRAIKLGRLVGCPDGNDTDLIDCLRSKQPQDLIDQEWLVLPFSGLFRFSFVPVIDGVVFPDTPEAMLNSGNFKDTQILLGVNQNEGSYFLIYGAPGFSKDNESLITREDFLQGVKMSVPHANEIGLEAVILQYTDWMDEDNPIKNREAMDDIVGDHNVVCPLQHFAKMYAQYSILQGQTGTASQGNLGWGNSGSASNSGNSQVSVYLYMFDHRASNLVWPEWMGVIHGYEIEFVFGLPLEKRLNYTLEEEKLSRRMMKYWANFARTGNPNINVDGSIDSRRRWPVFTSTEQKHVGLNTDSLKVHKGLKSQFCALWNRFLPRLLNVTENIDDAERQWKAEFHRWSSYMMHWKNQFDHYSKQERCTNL
Chain of Cholinesterase (P81908 whole entry): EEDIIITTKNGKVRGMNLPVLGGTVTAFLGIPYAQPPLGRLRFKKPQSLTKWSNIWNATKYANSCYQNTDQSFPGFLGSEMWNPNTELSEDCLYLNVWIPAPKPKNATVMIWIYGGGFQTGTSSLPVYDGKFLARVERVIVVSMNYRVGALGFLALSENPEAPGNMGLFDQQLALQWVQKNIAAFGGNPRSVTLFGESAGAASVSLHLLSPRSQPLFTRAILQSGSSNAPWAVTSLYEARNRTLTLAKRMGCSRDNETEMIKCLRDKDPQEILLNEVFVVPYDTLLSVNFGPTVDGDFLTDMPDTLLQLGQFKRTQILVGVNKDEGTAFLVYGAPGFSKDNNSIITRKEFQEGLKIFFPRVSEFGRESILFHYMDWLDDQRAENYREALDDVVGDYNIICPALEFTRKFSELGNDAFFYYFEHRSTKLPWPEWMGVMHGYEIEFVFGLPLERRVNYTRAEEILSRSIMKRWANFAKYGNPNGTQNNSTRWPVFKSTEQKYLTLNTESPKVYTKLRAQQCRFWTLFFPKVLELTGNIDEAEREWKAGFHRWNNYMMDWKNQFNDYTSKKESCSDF
Chain of D(2) dopamine receptor (P14416 whole entry): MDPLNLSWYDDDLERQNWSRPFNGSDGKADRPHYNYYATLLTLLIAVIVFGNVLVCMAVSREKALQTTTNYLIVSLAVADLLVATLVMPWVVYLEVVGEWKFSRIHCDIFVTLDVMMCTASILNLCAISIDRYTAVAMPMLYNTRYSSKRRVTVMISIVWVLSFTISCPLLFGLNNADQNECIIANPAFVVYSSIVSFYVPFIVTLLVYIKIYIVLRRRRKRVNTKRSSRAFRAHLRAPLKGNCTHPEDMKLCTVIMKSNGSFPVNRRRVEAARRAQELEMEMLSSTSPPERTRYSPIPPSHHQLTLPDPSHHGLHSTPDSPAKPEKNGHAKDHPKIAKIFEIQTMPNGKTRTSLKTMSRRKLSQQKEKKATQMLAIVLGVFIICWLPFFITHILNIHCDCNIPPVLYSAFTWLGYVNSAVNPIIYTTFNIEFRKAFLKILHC
T1 sequence (P28223 whole entry): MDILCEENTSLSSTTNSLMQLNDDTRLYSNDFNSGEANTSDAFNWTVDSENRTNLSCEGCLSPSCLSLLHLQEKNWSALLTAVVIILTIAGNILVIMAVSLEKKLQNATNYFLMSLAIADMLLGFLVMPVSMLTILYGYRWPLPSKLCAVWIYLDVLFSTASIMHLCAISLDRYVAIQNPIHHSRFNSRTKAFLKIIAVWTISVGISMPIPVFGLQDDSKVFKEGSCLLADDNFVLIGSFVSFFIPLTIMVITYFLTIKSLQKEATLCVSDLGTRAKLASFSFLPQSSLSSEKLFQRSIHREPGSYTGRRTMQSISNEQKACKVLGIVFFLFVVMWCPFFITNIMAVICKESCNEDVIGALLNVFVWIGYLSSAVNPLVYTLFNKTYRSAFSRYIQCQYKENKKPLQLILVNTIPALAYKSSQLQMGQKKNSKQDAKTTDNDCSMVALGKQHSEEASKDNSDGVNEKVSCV
Chain of D(1A) dopamine receptor (P21728 whole entry): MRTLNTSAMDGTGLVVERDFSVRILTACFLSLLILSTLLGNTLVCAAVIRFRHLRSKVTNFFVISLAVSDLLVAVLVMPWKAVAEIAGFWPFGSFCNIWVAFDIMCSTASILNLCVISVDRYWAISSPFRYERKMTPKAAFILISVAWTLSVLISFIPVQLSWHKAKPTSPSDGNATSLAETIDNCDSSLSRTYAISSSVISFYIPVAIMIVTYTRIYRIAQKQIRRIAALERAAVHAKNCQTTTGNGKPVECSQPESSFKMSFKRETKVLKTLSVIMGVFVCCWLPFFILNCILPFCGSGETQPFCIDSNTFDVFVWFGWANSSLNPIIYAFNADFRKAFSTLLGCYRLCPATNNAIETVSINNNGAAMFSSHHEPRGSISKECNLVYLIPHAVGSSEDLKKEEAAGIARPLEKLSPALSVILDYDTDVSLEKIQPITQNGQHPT
Chain of 5-hydroxytryptamine receptor 7 (P32305 whole entry): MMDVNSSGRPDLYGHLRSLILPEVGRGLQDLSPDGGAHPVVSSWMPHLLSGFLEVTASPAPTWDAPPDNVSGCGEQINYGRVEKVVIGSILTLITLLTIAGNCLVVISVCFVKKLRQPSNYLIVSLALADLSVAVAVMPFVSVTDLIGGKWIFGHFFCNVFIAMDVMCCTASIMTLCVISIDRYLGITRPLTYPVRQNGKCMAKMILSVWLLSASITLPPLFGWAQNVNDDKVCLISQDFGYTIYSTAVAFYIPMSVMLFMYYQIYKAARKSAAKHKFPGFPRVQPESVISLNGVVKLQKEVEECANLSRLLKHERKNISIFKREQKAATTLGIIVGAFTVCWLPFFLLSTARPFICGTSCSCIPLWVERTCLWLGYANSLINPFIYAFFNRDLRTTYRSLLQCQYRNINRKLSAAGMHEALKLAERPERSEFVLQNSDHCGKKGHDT
Chain of 5-hydroxytryptamine receptor 2B (P41595 whole entry): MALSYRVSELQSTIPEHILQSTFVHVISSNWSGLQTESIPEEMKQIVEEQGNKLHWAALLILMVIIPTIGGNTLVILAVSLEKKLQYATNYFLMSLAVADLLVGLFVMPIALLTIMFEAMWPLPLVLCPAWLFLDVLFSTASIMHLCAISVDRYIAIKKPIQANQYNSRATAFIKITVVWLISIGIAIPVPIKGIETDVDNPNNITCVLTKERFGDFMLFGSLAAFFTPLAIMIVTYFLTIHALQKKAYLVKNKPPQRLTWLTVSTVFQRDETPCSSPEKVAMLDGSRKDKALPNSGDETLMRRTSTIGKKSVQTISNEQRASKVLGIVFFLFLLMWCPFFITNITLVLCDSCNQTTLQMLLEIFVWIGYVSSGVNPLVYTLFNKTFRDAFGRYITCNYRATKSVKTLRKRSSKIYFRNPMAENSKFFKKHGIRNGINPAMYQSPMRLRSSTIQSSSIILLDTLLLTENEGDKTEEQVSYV

SMILES | IC50 (Acetylcholinesterase) [µM] | IC50 (Cholinesterase) [µM] | IC50 (BV-2) [µM] | other results
CN1CCc2cc3c(c4c2[C@H]1[C@H](O)c1ccccc1-4)OCO3 | 17.6 | 7.42 |  | 
CN(C)c1ccc(O)c2c1C[C@H]1C[C@H]3[C@H](N(C)C)C(O)=C(C(N)=O)C(=O)[C@@]3(O)C(O)=C1C2=O [MINOCYCLINE] |  |  | 15.5 | 
COc1cc2c(cc1OC)-c1c3c(cc4c1[C@H](C2)N(C)CC4)OCO3 [DICENTRINE] | 6.11 | 26.4 |  | Kb [1]: 0.0839 µM; Kb [2]: 0.208 µM; Kb [3]: 0.776 µM; Kb [4]: 0.163 µM; Kb [5]: 0.155 µM; Kb [6]: 0.181 µM
COc1ccc(OC)c2c1C[C@@H]1c3c(cc4c(c3-2)OCO4)CCN1C |  |  |  | IC50 (D(2) dopamine receptor): 18.3 µM
CN1CCc2cc3c(c4c2c1cc1ccccc14)OCO3 [DEHYDROROEMERINE] | 1.21 | 3.34 | 1.3 | 
COc1c(O)cc2c3c1-c1ccccc1C[C@H]3NCC2 [(-)-ASIMILOBINE] | 141 | 10.1 |  | IC50 (D(1A) dopamine receptor): 7.2 µM; EC50 [7]: 0.653 µM
COc1c(O)cc2c3c1-c1ccccc1CC3N(C)CC2 (stereo not drawn) |  |  |  | IC50 [8]: 19.6 µM
COc1c(O)ccc2c1cc1c3c(cc4c(c32)OCO4)CCN1C |  |  | 39.2 | 
CN1CCc2ccc3c4c2[C@H]1Cc1cccc(c1-4)C3 |  |  |  | Ki [9]: 0.0043 µM
COc1ccc2c3c1-c1ccccc1CC3NCC2 (stereo not drawn) |  |  |  | EC50 [10]: 0.103 µM; Emax [11]: 96%
COc1cccc2c1[C@@H](O)[C@@H]1c3c(cc4c(c3-2)OCO4)CCN1C | 6.12 | 5.87 |  | 
COc1cc2c3c(c1OC)-c1cc(O)ccc1C[C@H]3NCC2 |  |  |  | IC50 (D(2) dopamine receptor): 5.2 µM
COc1cccc2c1cc1c3c(cc4c(c32)OCO4)CCN1C |  |  | 30.2 | 
